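Exposure lasted 48 hours, with cells grown in 96-well plates and compounds tested at five concentrations. GI50: concentration for 50% inhibition of growth. At the TGI there is no net growth.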
Assays:
Test in all cases: inhibition of tumour cell growth, NCI panel, 48 h
[1] = system: HL-60(TB) leukemia
[2] = system: HT29 colon
[3] = system: MDA-MB-231 breast
[4] = system: OVCAR-3 ovarian
[5] = system: RXF 393 renal
[6] = system: SF-539 CNS
[7] = system: SK-MEL-28 melanoma
[8] = system: SN12C renal
[9] = system: SNB-75 CNS
[10] = system: A498 renal

Compound | GI50 [1] [µM] | TGI [1] [µM] | GI50 [2] [µM] | TGI [2] [µM] | GI50 [3] [µM] | TGI [3] [µM] | GI50 [4] [µM] | TGI [4] [µM] | GI50 [5] [µM] | TGI [5] [µM] | GI50 [6] [µM] | TGI [6] [µM] | GI50 [7] [µM] | TGI [7] [µM] | GI50 [8] [µM] | TGI [8] [µM] | GI50 [9] [µM] | TGI [9] [µM] | GI50 [10] [µM] | TGI [10] [µM]
Cc1ccc2[nH]c3c(c2c1)N=c1ccccc1=NO3 | > 100 | > 100 | 76.1 | > 100 | 35.9 | > 100 | 25.8 | > 100 | 47.6 | > 100 | 10.6 | 27.6 | > 100 | > 100 | 36.5 | > 100 | 25.4 | > 100 |  | 
COc1ccc(OC)c(NC(=O)c2cccc(NC3=C(Cl)C(=O)N(Cc4ccccc4)C3=O)c2)c1 | 5.82 | > 100 | > 100 | > 100 | > 35.7 | > 54.1 | > 100 | > 100 | > 74.6 | > 100 | > 94.9 | > 100 | > 100 | > 100 | > 58.1 | > 100 | > 100 | > 100 |  | 
CCCCCCCN(CCCCCCC)C(=N)c1ccnc2ccccc12 | 1.75 | 3.7 | 1.24 | 2.87 | 1.62 | 3.58 | 1.45 | 2.84 | 1.44 | 2.99 | 1.9 | 3.58 | 1.68 | 3.21 | 1.67 | 3.49 | 1.2 | 2.77 |  | 
COc1cc(OC)cc(-c2nc3sccn3c2/C=N/N=C(N)N)c1 |  |  | 8.14 | 14.9 | 6.91 | 13.6 | 5.52 | 12.3 | 7.96 | 16.7 | 8.26 | 15.7 |  |  | 7 | 13.6 |  |  | 9.86 | 17.3
Cc1c(-c2coc(-c3ccccc3)n2)c(=O)n(-c2ccccc2)n1C |  | > 100 |  | > 100 |  |  |  | > 100 |  |  |  | > 100 |  | > 100 |  | > 100 |  | > 100 |  | > 100
CCCCCCCCCCCC[N+](C)(C)Cc1ccccc1 | 1.02 | 2.85 | 1.23 | 3.24 | 1.62 | 3.81 | 1.71 | 4.02 |  |  | 1.66 | 3.17 | 2.06 | 4.34 | 2.11 | 5.12 | 1.45 | 3.53 | 8.06 | 24.8
CCN(CC)CCCOc1ccc2ncnc(Nc3ccc(Oc4cccc(C(F)(F)F)c4)c(Cl)c3)c2c1 |  |  |  |  | 1.79 | 3.24 | 1.45 | 2.84 | 1.45 | 2.97 | 1.74 | 3.17 | 1.63 | 2.99 | 1.34 | 2.69 | 1.49 | 2.86 | 0.229 | 3.56
O=C1OCC(c2ccc(O)cc2)=C1c1cc(O)c(O)c(O)c1 |  |  | > 100 | > 100 | > 100 | > 100 | 27.9 | 82.3 | > 100 | > 100 | > 100 | > 100 | > 100 | > 100 | 54 | > 100 | > 100 | > 100 | > 100 | > 100
CC(=O)NNc1nc(C)c(C(/C=C/c2ccc([N+](=O)[O-])cc2)=N/NC(N)=O)s1 |  |  |  | > 100 |  | > 100 |  | > 100 |  | > 100 |  | > 100 |  | > 100 |  | > 100 |  | > 100 |  | > 100
CCNc1cc2oc(=O)cc(C(F)(F)F)c2cc1C |  |  |  | > 100 |  | > 100 |  | > 100 |  | > 100 |  | > 100 |  | > 100 |  | > 100 |  | > 100 |  | > 100
CCOc1cc(C(=O)O)c2c(ccc3ccc(OC)c(OC)c32)c1OC |  | > 100 |  | > 100 |  | > 100 |  | > 100 |  | > 100 |  |  |  | > 100 |  | > 100 |  | > 100 |  | 
CCO/C(CCn1[nH]c(=O)c(Cl)c(Cl)c1=O)=N\NC(=O)C(=O)NN |  | > 100 |  | > 100 |  |  |  | > 100 |  | > 100 |  | > 100 |  | > 100 |  | > 100 |  | > 100 |  | > 100
